Experimental data as given in the SangsterLogP compilation.

Experiment: method code SF-AS, from DOI: 10.1016/0009-2797(77)90026-6

Row | SMILES | logP
1 | CCN(N=O)C(=O)N(C)C | 0.71
2 | CC1CC(C)CN(N=O)C1 (configuration not stated) | 1.53
3 | CC1CCCN(N=O)C1 (configuration not stated) | 0.99
4 | CC1CCC(C)N1N=O (configuration not stated) | 0.86
5 | O=NN1CC=CCC1 | 1.18
6 | N#CCCN(CCC#N)N=O | 0.08
7 | O=NN(CC(F)(F)F)CC(F)(F)F | 2.15
8 | O=NN1CCCCC1 | 0.63
9 | CCCCCCCCCCCCN(C)N=O | 2.18
10 | O=NN1CCCCCCC1 | 1.48
11 | O=NN1CCC(c2ccccc2)CC1 | 2.59
12 | CN(N=O)C1CCCCC1 | 1.43
13 | CC(C)(C)C1CCN(N=O)CC1 | 2.54
14 | N#CCN(CC#N)N=O | 0.04
15 | O=NN1CCC(Cl)C(Cl)C1 (configuration not stated) | 1.04
16 | O=NN1CCCC1 | -0.19
17 | O=NN1CCCC(O)C1 (configuration not stated) | -0.47
18 | CN(CC(C)(C)C)N=O | 1.34
19 | COCCN(CCOC)N=O | -0.38
20 | O=NN1CCSCC1 | 0.4
21 | CC1CN(N=O)CC(C)N1C(=O)c1ccccc1 (configuration not stated) | 1.41
22 | O=NN1CCCCCCCC1 | 2.04
23 | O=NN1CCN(N=O)CC1 | -0.85
24 | CC1(C)CCCC(C)(C)N1N=O | 2.49

Row | SMILES | logP
25 | O=NN1CCCCCC1 | 0.92
26 | CC1CN(N=O)CCN1N=O (configuration not stated) | -0.28
27 | CC1CN(N=O)CC(C)N1N=O (configuration not stated) | 0.08
28 | CN(C)C(=O)N(C)N=O | 0.36
29 | CC1CCN(N=O)CC1 | 1.05
30 | CC1CCCCN1N=O (configuration not stated) | 0.71
31 | CN1CCN(N=O)CC1 | 0.2
32 | CCN(CC)C(=O)N(CC)N=O | 1.54
33 | CC1CN(N=O)C(C)CN1N=O (configuration not stated) | 0.15
34 | O=NN1CCNCC1 | 0.18
35 | O=NN1CC=CC1 | 0.26
36 | CC1CN(N=O)CC(C)N1 (configuration not stated) | 0.73
37 | CCN(CC)C(=O)N(C)N=O | 1.11
38 | CCOCCN(CCOCC)N=O | 0.79
39 | CC1C(C)N(N=O)C(C)C(C)N1N=O (configuration not stated) | 0.91
40 | CC1CN(N=O)CC(C)O1 (configuration not stated) | 0.32
41 | O=NN1CCCN(N=O)CC1 | -0.51
42 | CC1CN(C(=O)c2ccccc2)CC(C)N1N=O (configuration not stated) | 1.04
43 | CC1C(c2ccccc2)OCCN1N=O (configuration not stated) | 2.09
44 | CC1CCCC(C)N1N=O (configuration not stated) | 1.36
45 | O=NN1CCC(O)CC1 | -0.89
46 | O=NN1CCC(Br)C(Br)C1 (configuration not stated) | 1.23
47 | O=NN1CCC(=O)CC1 | -0.47
